Some results are limits rather than exact numbers.

The subject of this assay is Haemonchus contortus. Nature of the assay: Method A: Haemonchus contortus L1 larvae, microtitre plate screen. Conditions: 96 h, read-out: motility inhibition.
As usually defined, the inhibition is the drop in the measured response relative to a control, in per cent. Take `O=C(COc1ccc2ccc([N+](=O)[O-])c(C(F)(F)F)c2c1)N1CCN(c2ccc3cc(C(F)(F)F)ccc3n2)CC1` [Compound 131, 2-[[7-nitro-8-(trifluoromethyl)naphthalen-2-yl]oxy]-1-[4-[6-(trifluoromethyl)quinolin-2-yl]piperazin-1-yl]ethan-1-one]: the inhibition at 5 µg/mL is no less than 90%.

Regarding `O=C(NCCO[C@H]1CC[C@H](Nc2ccc([N+](=O)[O-])c(C(F)(F)F)c2)CC1)C(=O)Nc1ccc2cc(C(F)(F)F)ccc2c1` [Compound 173], the inhibition at 5 µg/mL was no less than 90%.

As to `O=C(CO[C@H]1CC[C@H](Nc2ccc([N+](=O)[O-])c(C(F)(F)F)c2)CC1)N1CCN(c2nc3cc(C(F)(F)F)ccc3o2)CC1` [Compound 400, 2-[4-(4-nitro-3-trifluoromethyl-phenylamino)-cyclohexyloxy]-1-[4-(5-trifluoromethyl-benzooxazol-2-yl)-piperazin-1-yl]-ethanone], the inhibition at 5 µg/mL is no less than 90%.

Take `C[C@@H]1CN(C(=O)CO[C@H]2CC[C@H](Nc3ccc([N+](=O)[O-])c(C(F)(F)F)c3)CC2)C[C@H](C)N1Cc1ccc2cc(F)ccc2c1` [Compound 372, 1-[(3S,5R)-4-(6-fluoro-naphthalen-2-ylmethyl)-3,5-dimethyl-piperazin-1-yl]-2-[4-(4-nitro-3-trifluoromethyl-phenylamino)-cyclohexyloxy]-ethanone]: the inhibition at 5 µg/mL is no less than 90%.

Consider `C[C@@H]1CN(Cc2ccc3cc(F)ccc3c2)[C@@H](C)CN1C(=O)CO[C@H]1CC[C@H](Nc2ccc([N+](=O)[O-])c(C(F)(F)F)c2)CC1` [Compound 357, 1-[(2R,5S)-4-(6-fluoro-naphthalen-2-ylmethyl)-2,5-dimethyl-piperazin-1-yl]-2-[4-(4-nitro-3-trifluoromethyl-phenylamino)-cyclohexyloxy]-ethanone], for which the inhibition at 5 µg/mL was no less than 90%.

`O=C(CO[C@H]1CC[C@H](Nc2ccc([N+](=O)[O-])c(C(F)(F)F)c2)CC1)N1CCN(Cc2cc3cc(Cl)cc(Br)c3o2)CC1` [Compound 321, 2-[(4-[[4-nitro-3-(trifluoromethyl)phenyl]amino]cyclohexyl)-oxy]1-[4-(5-chloro-7-bromobenzofuran-2-ylmethyl)piperazin-1-yl]ethan-1-one]: the inhibition at 5 µg/mL is no less than 90%.

Regarding `CN(c1ccc(C#N)c(C(F)(F)F)c1)[C@H]1CC[C@H](OCC(=O)N2CCN(CC3Cc4cc(F)ccc4O3)CC2)CC1` (some centres unmarked) [Compound 280, 4-[(4-{2-[4-(5-fluoro-2,3-dihydro-benzofuran-2-ylmethyl)-piperazin-1-yl]-2-oxo-ethoxy}-cyclohexyl)-methyl-amino]-2-trifluoromethyl-benzonitrile], the inhibition at 5 µg/mL was no less than 90%.

For `C[C@@H]1CN(C(=O)CO[C@H]2CC[C@H](Nc3ccc([N+](=O)[O-])c(C(F)(F)F)c3)CC2)C[C@H](C)N1c1ccc2cc(F)ccc2n1` [Compound 381, 1-[(3S,5R)-4-(6-fluoro-quinolin-2-yl)-3,5-dimethyl-piperazin-1-yl]-2-[4-(4-nitro-3-trifluoromethyl-phenylamino)-cyclohexyloxy]-ethanone], the inhibition at 5 µg/mL is no less than 90%.

On to `O=C(NCCO[C@H]1CC[C@H](Nc2ccc([N+](=O)[O-])c(C(F)(F)F)c2)CC1)C(=O)Nc1ccc2cc(Cl)ccc2c1` [Compound 174], for which the inhibition at 5 µg/mL is no less than 90%.

Turning to `N#Cc1ccc(N[C@H]2CC[C@H](OCC(=O)N3CCN(c4nc5cc(C(F)(F)F)ccc5s4)CC3)CC2)cc1C(F)(F)F` [Compound 358, 4-(4-{2-oxo-2-[4-(5-trifluoromethyl-benzothiazol-2-yl)-piperazin-1-yl]-ethoxy}-cyclohexylamino)-2-trifluoromethyl-benzonitrile], the inhibition at 5 µg/mL was no less than 90%.

With `O=C(CO[C@H]1CC[C@H](Nc2ccc(S(=O)(=O)C(F)(F)F)cc2)CC1)N1CCN(c2nc3cc(C(F)(F)F)ccc3s2)CC1` [Compound 364, 2-[4-(4-trifluoromethanesulfonyl-phenylamino)-cyclohexyloxy]-1-[4-(5-trifluoromethyl-benzothiazol-2-yl)-piperazin-1-yl]-ethanone], the inhibition at 5 µg/mL is no less than 90%.

The values above are taken from patent US9249102B2 (priority 2012, dated 2016).
